# Experimental data published in US10968236B2, “TYK2 inhibitors and uses thereof” (Nimbus Lakshmi, Inc., priority 2015, dated 2021).
# Experiments:
# TYK2 = TYK2 (Homo sapiens (Human), UniProt P29597); assay: Tyk2 activity inhibition assay (radioactive kinase / Caliper assay); type: biochemical
# Experimental: (§1) Peptide substrate, [KKSRGDYMTMQIG], (20 μM) is prepared in reaction buffer (20 mM Hepes pH 7.5, 10 mM MgCl2, 1 mM EGTA, 0.02% Brij35, 0.02 mg/mL BSA, 0.1 mM […], 2 mM DTT, 1% DMSO. TYK2 (Invitrogen) kinase is added, followed by compounds in DMSO. 33PATP is added to initiate the reaction in ATP at 10 μM. Kinase reaction is incubated for 120 min at room temp and reactions are spotted onto P81 ion exchange paper (Whatman #3698-915), and then washed extensively in 0.75% phosphoric acid, prior to reading the radioactivity counts. For JAK2 (Invitrogen) kinase assay the peptide substrate poly[Glu:Tyr] (4:1), 0.2 mg/ml is used, in the reaction carried out the same as for TYK2.
# (§2) The caliper machine employs an off chip mobility shift assay to detect phosphorylated peptide substrates from kinase assays, using microfluidics technology. The assays are carried out at ATP concentration equivalent to the ATP Km, and at 1 mM ATP. Compounds are serially diluted in DMSO then further diluted in assay buffer (25 mM HEPES, pH 7.5, 0.01% Brij-35, 0.01% Triton, 0.5 mM EGTA). 5 ul of diluted compound was added into wells first, then 10 ul of enzyme mix was added into wells, followed by 10 uL of substrate mix (peptide and ATP in 10 mM MgCl2) to start reaction. Reaction was incubated at 28° C. for 25 min and then added 25 ul stop buffer (100 mM HEPES, 0.015% Brij-35, 50 mM EDTA), followed by reading with Caliper. JAK2 at 1 nM final concentration and TYK2 at 9.75 nM are from Carna, and substrates used are ATP at 20 and 16 uM, respectively. JAK2 assay uses peptide 22 and TYK2 uses peptide 30 (Caliper), each at 3 uM.
# (§3) The compound numbers correspond to the compound numbers in Table 1. Compounds having an activity designated as “A” provided an Ki≤0.01 μM; compounds having an activity designated as “B” provided an Ki of 0.01-0.1 μM; compounds having an activity designated as “C” provided an Ki of 0.1-1.0 μM; and compounds having an activity designated as “D” provided an Ki≥1.0 μM.
# JAK2 = JAK2 (Homo sapiens (Human), UniProt O60674); assay: JAK2 activity inhibition assay (radioactive kinase / Caliper assay); type: biochemical
# Experimental: as §1, §2, §3
# Chain of TYK2 (P29597 whole entry): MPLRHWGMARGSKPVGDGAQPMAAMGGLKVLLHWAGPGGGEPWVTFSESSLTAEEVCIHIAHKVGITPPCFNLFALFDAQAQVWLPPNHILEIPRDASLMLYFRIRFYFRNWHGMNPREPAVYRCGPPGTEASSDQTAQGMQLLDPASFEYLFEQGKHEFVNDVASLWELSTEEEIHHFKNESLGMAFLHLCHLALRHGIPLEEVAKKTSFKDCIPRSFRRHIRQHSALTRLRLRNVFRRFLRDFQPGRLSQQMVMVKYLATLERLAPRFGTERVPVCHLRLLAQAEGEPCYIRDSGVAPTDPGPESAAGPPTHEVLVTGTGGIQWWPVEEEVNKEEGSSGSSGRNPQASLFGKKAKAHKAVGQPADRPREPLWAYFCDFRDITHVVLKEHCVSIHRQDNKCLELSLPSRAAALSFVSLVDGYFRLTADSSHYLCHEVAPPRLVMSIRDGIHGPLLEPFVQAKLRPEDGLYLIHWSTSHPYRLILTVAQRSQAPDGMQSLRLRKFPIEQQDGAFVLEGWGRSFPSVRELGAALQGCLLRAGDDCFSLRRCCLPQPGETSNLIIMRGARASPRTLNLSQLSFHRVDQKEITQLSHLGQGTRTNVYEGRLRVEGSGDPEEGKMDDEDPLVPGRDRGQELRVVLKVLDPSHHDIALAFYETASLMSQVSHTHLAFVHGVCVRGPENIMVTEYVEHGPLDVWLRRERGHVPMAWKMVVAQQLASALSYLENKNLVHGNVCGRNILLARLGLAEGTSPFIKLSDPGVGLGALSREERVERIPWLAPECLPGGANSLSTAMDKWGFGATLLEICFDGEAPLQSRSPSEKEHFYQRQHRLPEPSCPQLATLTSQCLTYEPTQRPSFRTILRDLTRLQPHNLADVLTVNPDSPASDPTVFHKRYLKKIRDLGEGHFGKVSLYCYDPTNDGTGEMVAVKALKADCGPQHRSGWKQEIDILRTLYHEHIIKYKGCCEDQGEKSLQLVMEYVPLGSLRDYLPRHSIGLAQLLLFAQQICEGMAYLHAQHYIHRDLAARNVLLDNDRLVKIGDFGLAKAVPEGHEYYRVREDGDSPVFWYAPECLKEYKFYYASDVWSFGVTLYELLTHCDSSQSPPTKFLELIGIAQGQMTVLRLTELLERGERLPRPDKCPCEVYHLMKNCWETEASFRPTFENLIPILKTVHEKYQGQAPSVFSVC
# Chain of JAK2 (O60674 whole entry): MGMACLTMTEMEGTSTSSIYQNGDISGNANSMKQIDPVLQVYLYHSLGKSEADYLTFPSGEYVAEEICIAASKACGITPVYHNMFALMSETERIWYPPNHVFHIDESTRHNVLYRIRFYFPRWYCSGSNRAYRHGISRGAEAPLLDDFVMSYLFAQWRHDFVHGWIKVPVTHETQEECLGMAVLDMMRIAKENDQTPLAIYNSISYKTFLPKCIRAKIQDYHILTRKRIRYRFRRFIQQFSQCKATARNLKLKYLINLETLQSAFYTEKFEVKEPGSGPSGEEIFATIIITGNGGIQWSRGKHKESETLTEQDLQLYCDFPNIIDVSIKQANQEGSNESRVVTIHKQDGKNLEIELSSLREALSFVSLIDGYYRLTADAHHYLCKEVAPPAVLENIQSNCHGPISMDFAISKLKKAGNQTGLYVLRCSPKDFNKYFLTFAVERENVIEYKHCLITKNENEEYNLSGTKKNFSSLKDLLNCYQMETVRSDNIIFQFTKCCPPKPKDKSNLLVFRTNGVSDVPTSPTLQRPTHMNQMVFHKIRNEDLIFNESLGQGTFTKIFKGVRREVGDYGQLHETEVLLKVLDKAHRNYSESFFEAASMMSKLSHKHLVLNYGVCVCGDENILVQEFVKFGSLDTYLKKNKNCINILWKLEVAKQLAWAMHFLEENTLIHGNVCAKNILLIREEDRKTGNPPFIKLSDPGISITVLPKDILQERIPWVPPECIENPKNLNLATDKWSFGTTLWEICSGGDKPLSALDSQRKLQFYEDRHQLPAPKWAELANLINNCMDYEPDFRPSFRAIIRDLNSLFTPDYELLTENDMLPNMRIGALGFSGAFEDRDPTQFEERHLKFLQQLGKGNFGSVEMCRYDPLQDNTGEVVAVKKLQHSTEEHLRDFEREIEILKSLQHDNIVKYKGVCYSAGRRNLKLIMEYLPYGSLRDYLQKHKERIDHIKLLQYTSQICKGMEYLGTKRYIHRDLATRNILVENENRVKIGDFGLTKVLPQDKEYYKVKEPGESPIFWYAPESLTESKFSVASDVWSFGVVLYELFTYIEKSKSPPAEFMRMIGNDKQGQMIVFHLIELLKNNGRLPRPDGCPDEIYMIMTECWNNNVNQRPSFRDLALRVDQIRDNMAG
Ki (TYK2),Ki (JAK2),Structure (SMILES)
10 to 100 nM,≥ 1000 nM,"O=C1NCc2nc(-c3c(F)cccc3F)cc(Nc3ccc(N4C[C@H]5COC[C@H]5C4)nc3)c21 [Compound I-73, 2-(2,6-difluorophenyl)-4-((6-((3aR,6aS)-tetrahydro-1H-furo[3,4-c]pyrrol-5(3H)-yl)pyridin-3-yl)amino)-6,7-dihydro-5H-pyrrolo[3,4-b]pyridin-5-one]"
≤ 10 nM,≤ 10 nM,"O=C1NCc2nc(-c3c(F)cccc3F)cc(Nc3ccc(N4CCOCC45CC5)cn3)c21 [Compound I-47, 4-((5-(7-oxa-4-azaspiro[2.5]octan-4-yl)pyridin-2-yl)amino)-2-(2,6-difluorophenyl)-6,7-dihydro-5H-pyrrolo[3,4-b]pyridin-5-one]"
≤ 10 nM,10 to 100 nM,"O=C1NCc2nc(-c3c(F)cccc3F)cc(Nc3ccc(C(O)(C(F)(F)F)C(F)(F)F)cc3)c21 [Compound I-66, 2-(2,6-difluorophenyl)-4-((4-(1,1,1,3,3,3-hexafluoro-2-hydroxy-propan-2-yl)phenyl)amino)-6,7-dihydro-5H-pyrrolo[3,4-b]pyridin-5-one]"
≤ 10 nM,10 to 100 nM,"O=C1NCc2nc(-c3c(F)cccc3F)cc(Nc3ccc(N4CCC5(CCCCO5)CC4)cn3)c21 [Compound I-53, 4-((5-(1-oxa-9-azaspiro[5.5]undecan-9-yl)pyridin-2-yl)amino)-2-(2,6-difluorophenyl)-6,7-dihydro-5H-pyrrolo[3,4-b]pyridin-5-one]"
≤ 10 nM,≥ 1000 nM,"CC(N)(C(=O)O)c1ccc(Nc2nc(-c3c(F)cccc3F)nc3c2C(=O)NC3)cc1 (stereo not drawn) [Compound I-32, 2-amino-2-(4-((2-(2,6-difluorophenyl)-5-oxo-6,7-dihydro-5H-pyrrolo[3,4-d]pyrimidin-4-yl)amino)phenyl)propanoic acid]"
≤ 10 nM,≤ 10 nM,"CCNC(=O)C(C)(C)c1ccc(Nc2cc(-c3c(F)cccc3C#N)nc3c2C(=O)NC3)cc1 [Compound I-81, 2-(4-((2-(2-cyano-6-fluorophenyl)-5-oxo-6,7-dihydro-5H-pyrrolo[3,4-b]pyridin-4-yl)amino)phenyl)-N-ethyl-2-methylpropanamide]"
≤ 10 nM,10 to 100 nM,"O=C1NCc2nc(-c3c(F)cccc3F)cc(Nc3ccc(C(=O)N4C[C@H]5COC[C@H]5C4)cc3)c21 [Compound I-63, 2-(2,6-difluorophenyl)-4-((4-((3aR,6aS)-hexahydro-1H-furo[3,4-c]pyrrole-5-carbonyl)phenyl)amino)-6,7-dihydro-5H-pyrrolo[3,4-b]pyridin-5-one]"
10 to 100 nM,100 to 1000 nM,"COc1ccc(CNc2nc(-c3c(F)cccc3F)nc3c2C(=O)NC3)cc1 [Compound I-13, 2-(2,6-difluorophenyl)-4-((4-methoxybenzyl)-amino)-6,7-dihydro-5H-pyrrolo[3,4-d]pyrimidin-5-one]"
≤ 10 nM,100 to 1000 nM,"N#Cc1cccc(F)c1-c1cc(Nc2ccc(N3C[C@H]4COC[C@H]4C3)nc2)c2c(n1)CNC2=O [Compound I-74, 3-fluoro-2-(5-oxo-4-((6-((3aR,6aS)-tetrahydro-1H-furo[3,4-c]pyrrol-5(3H)-yl)pyridin-3-yl)amino)-6,7-dihydro-5H-pyrrolo[3,4-b]pyridin-2-yl)benzonitrile]"
≤ 10 nM,10 to 100 nM,"O=C1NCc2nc(-c3c(F)cccc3F)cc(Nc3ccc(C(=O)N4CCC5(CC4)CC5)cc3)c21 [Compound I-57, 4-((4-(6-azaspiro[2.5]octane-6-carbonyl)phenyl)amino)-2-(2,6-difluorophenyl)-6,7-dihydro-5H-pyrrolo[3,4-b]pyridin-5-one]"
100 to 1000 nM,100 to 1000 nM,"CN1C(=O)[C@@](C)(c2ccc(Nc3nc(-c4c(F)cccc4F)nc4c3C(=O)NC4)cc2)Oc2ccccc21 [Compound I-41, (R)-2-(4-((2-(2,6-difluorophenyl)-5-oxo-6,7-dihydro-5H-pyrrolo[3,4-d]pyrimidin-4-yl)amino)phenyl)-2,4-dimethyl-2H-benzo[b][1,4]oxazin-3(4H)-one]"

# Second part, the compound before the results:
Structure (SMILES),Ki (TYK2),Ki (JAK2)
"CC1(c2ccc(Nc3cc(-c4c(F)cccc4F)nc4c3C(=O)NC4)nc2)CC(C)(C)N(C2=CCOCC2)C1=O (stereo not drawn) [Compound I-55, 2-(2,6-difluorophenyl)-4-((5-(1-(3,6-dihydro-2H-pyran-4-yl)-3,5,5-trimethyl-2-oxopyrrolidin-3-yl)pyridin-2-yl)amino)-6,7-dihydro-5H-pyrrolo[3,4-b]pyridin-5-one]",≤ 10 nM,≤ 10 nM
"CCNC(=O)C(C)(N)c1ccc(Nc2nc(-c3c(F)cccc3F)nc3c2C(=O)NC3)cc1 (stereo not drawn) [Compound I-9, 2-amino-2-(4-((2-(2,6-difluorophenyl)-5-oxo-6,7-dihydro-5H-pyrrolo[3,4-d]pyrimidin-4-yl)amino)phenyl)-N-ethylpropanamide]",10 to 100 nM,10 to 100 nM
"N#Cc1cccc(F)c1-c1cc(Nc2ccc(N3C[C@H]4COC[C@H]4C3)cn2)c2c(n1)CNC2=O [Compound I-76, 3-fluoro-2-(5-oxo-4-((5-((3aR,6aS)-tetrahydro-1H-furo[3,4-c]pyrrol-5(3H)-yl)pyridin-2-yl)amino)-6,7-dihydro-5H-pyrrolo[3,4-b]pyridin-2-yl)benzonitrile]",≤ 10 nM,10 to 100 nM
"O=C1NCc2nc(-c3c(F)cccc3F)cc(Nc3ccc4c(c3)OCO4)c21 [Compound I-68, 4-(benzo[d][1,3]dioxol-5-ylamino)-2-(2,6-difluorophenyl)-6,7-dihydro-5H-pyrrolo[3,4-b]pyridin-5-one]",10 to 100 nM,100 to 1000 nM
"CCNC(=O)C(C)(O)c1ccc(Nc2nc(-c3c(F)cccc3F)nc3c2C(=O)NC3)cc1 (stereo not drawn) [Compound I-14, 2-(4-((2-(2,6-difluorophenyl)-5-oxo-6,7-dihydro-5H-pyrrolo[3,4-d]pyrimidin-4-yl)amino)phenyl)-N-ethyl-2-hydroxypropanamide]",≤ 10 nM,100 to 1000 nM
"O=C1NCc2nc(-c3c(F)cccc3F)cc(Nc3ccc4c(c3)OC(F)(F)O4)c21 [Compound I-69, 4-((2,2-difluorobenzo[d][1,3]dioxol-5-yl)amino)-2-(2,6-difluoro-phenyl)-6,7-dihydro-5H-pyrrolo[3,4-b]pyridin-5-one]",10 to 100 nM,≥ 1000 nM
"CC1(C)COc2nc(Nc3cc(-c4c(F)cccc4C#N)nc4c3C(=O)NC4)ccc21 [Compound I-85, 2-(4-((3,3-dimethyl-2,3-dihydrofuro[2,3-b]pyridin-6-yl)amino)-5-oxo-6,7-dihydro-5H-pyrrolo[3,4-b]pyridin-2-yl)-3-fluorobenzonitrile]",≥ 1000 nM,≥ 1000 nM
"CC1(C)COc2cc(Nc3cc(-c4c(F)cccc4C#N)nc4c3C(=O)NC4)ccc21 [Compound I-80, 2-(4-((3,3-dimethyl-2,3-dihydrobenzofuran-6-yl)amino)-5-oxo-6,7-dihydro-5H-pyrrolo[3,4-b]pyridin-2-yl)-3-fluorobenzonitrile]",≤ 10 nM,10 to 100 nM
"O=C1NCc2nc(-c3c(F)cccc3F)cc(Nc3ccc(N4CCC5(CC4)COC5)cn3)c21 [Compound I-24, 4-((5-(2-oxa-7-azaspiro[3.5]nonan-7-yl)pyridin-2-yl)amino)-2-(2,6-difluorophenyl)-6,7-dihydro-5H-pyrrolo[3,4-b]pyridin-5-one]",≤ 10 nM,≤ 10 nM
"CC1(C)Cc2ccc(Nc3cc(-c4c(F)cccc4F)nc4c3C(=O)NC4)cc2O1 [Compound I-71, 2-(2,6-difluorophenyl)-4-((2,2-dimethyl-2,3-dihydrobenzofuran-6-yl)amino)-6,7-dihydro-5H-pyrrolo[3,4-b]pyridin-5-one]",10 to 100 nM,100 to 1000 nM
"CC(O)(C(=O)O)c1ccc(Nc2nc(-c3c(F)cccc3F)nc3c2C(=O)NC3)cc1 (stereo not drawn) [Compound I-6, 2-(4-((2-(2,6-difluorophenyl)-5-oxo-6,7-dihydro-5H-pyrrolo-[3,4-d]pyrimidin-4-yl)amino)phenyl)-2-hydroxypropanoic acid]",≤ 10 nM,100 to 1000 nM
"O=C1NCc2nc(-c3c(F)cccc3F)cc(Nc3ccc4c(c3)COB4O)c21 [Compound I-61, 2-(2,6-difluorophenyl)-4-((1-hydroxy-1,3-dihydro-benzo-[c][1,2]oxaborol-5-yl)amino)-6,7-dihydro-5H-pyrrolo[3,4-b]pyridin-5-one]",10 to 100 nM,≥ 1000 nM
"CN1C(=O)C(C)(c2ccc(Nc3nc(-c4c(F)cccc4F)nc4c3C(=O)NC4)cc2)Oc2ccccc21 (stereo not drawn) [Compound I-39, 2-(4-((2-(2,6-difluorophenyl)-5-oxo-6,7-dihydro-5H-pyrrolo[3,4-d]pyrimidin-4-yl)amino)phenyl)-2,4-dimethyl-2H-benzo[b][1,4]oxazin-3(4H)-one]",≤ 10 nM,100 to 1000 nM
